Test results published in US20230352136A1, “SYSTEMS AND METHODS TO EVALUATE DRUG-INDUCED GASTROINTESTINAL DYSRHYTHMIA” (The Chinese University of Hong Kong, priority 2022, published 2023).

Key:
[1] = tested on: stomach pacemaker potentials; experiment: MEA recording of pacemaker potentials (slow waves), isolated stomach; type: cell-based, Suncus murinus
Experimental: (§1) Pacemaker potentials were recorded extracellularly on a 60-channel MEA system using full-thickness GI segments isolated from Suncus murinus. Basic slow-wave parameters, including frequency, amplitude, slope, period, and power partitions, were derived. Signal regularity was also evaluated using detrended fluctuation analysis and sample entropy analysis.
(§2) Electrical recordings were taken after the animals were euthanised by carbon dioxide asphyxiation. […] The mesentery was removed, and the lumen contents were flushed with Krebs' medium. Segments (−1 cm) of duodenum, ileum, and colon were then isolated, but the stomach was kept intact. All tissue segments and the entire stomach were incubated in Krebs' medium containing nifedipine (1 μM; Sigma Aldrich, St Louis, MO, USA) for 15 min to inhibit smooth muscle activity. Pacemaker potentials were recorded using an MEA platform (MEA1060 1200×; Multichannel Systems, Reutlingen, Germany) as previously described. Briefly, tissues were placed onto the electrode field of an MEA chip (60-channel, 8×8 configuration, 3D-tip-shaped electrodes with a height of […] and an inter-electrode distance of 200 μm; Ayanda Biosystems SA, Lausanne, Switzerland). Intestinal segments were aligned horizontally to the recording electrode field, while the stomach was oriented with the antrum facing the recording electrode field. The chamber temperature was maintained at 37° C. and the sampling frequency was 1 kHz. […] All data were recorded and saved using MC_Rack (v 4.6.2, Multichannel Systems).
(§3) Data analysis included basic slow-wave feature extraction using a custom automated program. […] The time point of drug administration was automatically identified based on the signal disturbance. The period of signal disturbance (20 s before and 40 s after the peak of the disturbance) was excluded from the analysis. Data were filtered using a passband between 0.1 Hz and 1 Hz and a stopband between 0.01 Hz and 2 Hz. The basic slow-wave features extracted were similar to those extracted in the inventors' previous studies. However, instead of using several templates and scripts written in Microsoft Excel and Spike 2, a one-step automatic and blinded MATLAB programme was used for data analysis. There were four major changes to the data analysis process as compared to the inventors' previous studies. First, auto-identification of the drug disturbance time point was used, rather than manual identification. Second, standardised signal filters were built in MATLAB to match the entire data analysis pipeline. […] Frequency partitioning was performed by segmenting the power spectrum of 0-50 cpm into the following four segments: brady-rhythm (within the range 2-[DF−1] cpm), normal-rhythm ([DF±1] cpm), tachy-rhythm (within the range [DF+1]-40 cpm), and out-of-range frequencies (<2 cpm and >40 cpm). Third, waveforms were identified using the MATLAB ‘findpeaks’ function, with a minimum peak height of […] at baseline and […] after drug treatment, with a step time of 5.4 s for the intestine and 12 s for the stomach. The average peak-to-peak amplitude, slope, and period were derived for all detected waveforms. Fourth, propagation velocity was derived using phase-difference measurements, based on the auto-select seed electrode with the highest percentage of normal rhythms.
(§4) Dominant activation pattern identification included a phase-based analysis performed as previously described (Liu et al., 2021). Briefly, high-frequency spikes with amplitudes greater than […] were masked. Continuous frequencies were identified using continuous wavelet transformation, and the transformed data were used to plot spectrograms. […] High quality data were subjected to Hilbert transformation to identify the phase and frequency of the signals. Individual activation times were clustered using k-means clustering every 20 s and major activation patterns were grouped using a structural similarity index.

[2] = tested on: duodenum pacemaker potentials; experiment: MEA recording of pacemaker potentials (slow waves), isolated duodenum; type: cell-based, Suncus murinus; conditions: duodenal tissues
Experimental: as §1, §2, §3, §4

With `Cl.NCCc1ccc(O)c(O)c1` [dopamine, 3-Hydroxytyramine hydrochloride] the “representative spectrogram, effect” value ([1]; 100 μM) was “reduced the DP of the DF”, the “wave fronts counted in representative spatio-temporal map (1 min)” value ([1]; 100 μM, 9 before treatment) was roughly 10 and the “DFA fluctuation function (smaller scale 3-25)” value ([1]; 100 μM, baseline 2.36±0.08, p<0.05, n=7) was 2.27±0.16. The “number of groups of activation patterns” value ([1]; 100 μM, baseline 4.3±1.0, p<0.05, n=8) was 5.3±1.0, the “average frequency (AF)” value ([1]; 100 μM, baseline 9.8±1.2, p<0.05, n=8) was 11.8±1.8 cpm and the percentage of tachy-rhythms ([1]; 100 μM, baseline 36.1±12.8, p<0.05, n=8) was 60.2±15.4%. The “percentage of normal rhythms” value ([1]; 100 μM, baseline 55.1±7.2, p<0.01, n=8) was 23.6±13.1%, the “dominant power (DP) of slow waves” value ([1]; 100 μM, baseline 888.0±691.5, p<0.05, n=8) was 253.2±416.1 μV^2 and the “percentage of dominant patterns (based on post-treatment data, FIG. 3E), change vs baseline” value ([1]; 100 μM, p>0.05, n=4) was “No significant differences”. The “percentage of dominant baseline activation patterns, change vs baseline” value ([1]; 100 μM, p>0.05, n=4, FIG. 3D) was “No significant differences”, the “average SampEn (larger scale 6-50), effect” value ([1]; 100 uM, p>0.05, n=7) was “did not change” and the “average SampEn (smaller scale 1-5), effect” value ([1]; 100 uM, p>0.05, n=7) was “did not change”. For the same molecule, the “DFA fluctuation function (larger scale 26-46), effect” value ([1]; 100 μM, p>0.05, n=7) was “did not change”, the “amplitude of slow waves, change vs baseline” value ([1]; 100 μM, p>0.05, n=8) was “No significant differences” and the “dominant frequency (DF), change vs baseline” value ([1]; 100 μM, p>0.05, n=8) was “No significant differences”. For the same molecule, the “propagation velocities, effect” value ([1]; 100 μM, p>0.05, n=8) was “did not affect”, the “slope of waveforms, change vs baseline” value ([1]; 100 μM, p>0.05, n=8) was “No significant differences” and the “waveform period, change vs baseline” value ([1]; 100 μM, p>0.05, n=8) was “No significant differences”. For the same molecule, the “wave propagation in video (FIG. 11B), effect” value ([1]; 100 M) was “wave propagation was inhibited, and amplitudes were reduced”, the waveform period ([2]; 100 nM, baseline 2.52±0.21, p<0.05, n=7) was 3.27 ± 0.47 s and the “DFA fluctuation function (smaller scale 3-25)” value ([2]; 100 nM, baseline 2.65±0.08, p<0.01, n=6) was 2.51±0.05. The percentage of tachy-rhythms ([2]; 100 nM, baseline 12.5±5.7, p<0.05, n=7) was 2.1±0.7%, the “percentage of dominant baseline activation patterns, second pattern” value ([2]; 100 nM, baseline 23.3±5.7, p<0.05, n=7) was 8.4±11.2% and the “average frequency (AF)” value ([2]; 100 nM, baseline 24.1±2.0, p<0.05, n=7) was 20.9±0.7 cpm. For the same molecule, the “dominant frequency (DF) of slow waves” value ([2]; 100 nM, baseline 27.1±2.2, p<0.05, n=7) was 24.9±1.2 cpm, the “percentage of dominant baseline activation patterns, first pattern” value ([2]; 100 nM, baseline 32.3±11.8, p<0.01, n=7) was 11.1±13.0% and the percentage of brady-rhythms ([2]; 100 nM, baseline 35.7±10.3, p<0.0001, n=7) was 87.2±7.7%. The “percentage of normal rhythms” value ([2]; 100 nM, baseline 46.1±11.2, p<0.001, n=7) was 4.8±4.6%, the slope of waveforms ([2]; 100 nM, baseline 321.7±95.5, p<0.01, n=7) was 166.9±57.7 μV s^−1 and the “DFA fluctuation function (larger scale 26-46)” value ([2]; 100 nM, baseline […], p<0.01, n=6) was 1.98±0.11. The “DFA fluctuation function (larger scale 26-46)” value ([2]; 1 μM, baseline 1.74±0.32, p<0.05, n=7) was 1.63±0.38, the “number of groups of activation patterns” value ([2]; 1 μM, baseline 6.2±1.0, p<0.05, n=6) was 6.8±1.0 and the percentage of brady-rhythms ([2]; 1 μM, baseline 25.8±12.3, p<0.05, n=6) was 53.7±26.6%. For the same molecule, the “percentage of dominant baseline activation patterns, first pattern” value ([2]; 1 μM, baseline 33.7±13.1, p<0.05, n=6) was 12.8±9.4%, the “representative spectrogram, effect on DF” value ([2]; 10 μM) was “slightly shifted towards a lower frequency” and the “wave fronts counted in representative spatio-temporal map (1 min)” value ([2]; 10 μM, 30 before treatment) was 27. The “average SampEn (smaller scale 1-5)” value ([2]; 10 μM, baseline 0.58±0.05, p<0.05, n=7) was 0.60±0.04, the “number of groups of activation patterns” value ([2]; 10 μM, baseline 5.9±0.7, p<0.05, n=9) was 6.4±0.5 and the “percentage of dominant patterns (based on post-treatment data, FIG. 3E), second pattern” value ([2]; 10 μM, baseline 10.2±9.1, p<0.05, n=5) was 18.5±2.3%. The “percentage of normal rhythms” value ([2]; 10 μM, baseline 52.4±14.7, p<0.05, n=9) was 7.8±6.4%, the slope of waveforms ([2]; 10 μM, baseline 202.4±50.6, p<0.05, n=9) was 153.9±47.7 μV s^−1 and the “DFA fluctuation function (larger scale 26-46)” value ([2]; 100 μM, baseline 1.46±0.29, p<0.05, n=9) was 1.36±0.31. The waveform period ([2]; 100 μM, baseline 2.44±0.72, p<0.05, n=5) was 3.26 ± 1.29 s, the “percentage of dominant baseline activation patterns, third pattern” value ([2]; 100 μM, baseline 15.2±2.1, p<0.05, n=4) was 5.9±3.6% and the “percentage of dominant patterns (based on post-treatment data, FIG. 3E), third pattern” value ([2]; 100 μM, baseline 20.3±10.8, p<0.05, n=4) was 7.5±5.8%.
